The target of assay [1] is T1, hCatB (Human Cathepsin B) (Homo sapiens, UniProt P07858).
T1 construct: gene CTSB; recombinant human enzyme, gift of J. Mort
Description: fluorogenic inhibition assay, Z-FR-AMC ([…]). The conditions noted are these: 0.1 M sodium acetate pH 5.5, 2.5 mM DTT, 2.5 mM EDTA, room temperature. It counts as biochemical.

Assay [2] concerns the target T2, hCatL (human Cathepsin L) (Homo sapiens, UniProt P07711).
T2 construct: gene CTSL; native enzyme from human liver, commercial (Fisher Scientific)
As to the kind of experiment: fluorogenic inhibition assay, Z-FR-AMC ([…]). It counts as biochemical. To be noted: 0.1 M sodium acetate pH 5.5, 2.5 mM DTT, 2.5 mM EDTA, room temperature.

Each structure is given as a SMILES string.

T2 sequence (P07711 114-288): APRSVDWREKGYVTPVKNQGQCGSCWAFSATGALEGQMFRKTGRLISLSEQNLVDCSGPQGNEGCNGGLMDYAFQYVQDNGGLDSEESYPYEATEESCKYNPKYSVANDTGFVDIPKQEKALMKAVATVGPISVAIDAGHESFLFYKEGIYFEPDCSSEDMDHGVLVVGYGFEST
T2 sequence (P07711 292-333): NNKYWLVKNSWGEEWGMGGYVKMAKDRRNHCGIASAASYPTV

On to `CC(C)(C)[C@H](NC(=O)C(F)(F)F)C(=O)N1C[C@H]2[C@@H]([C@H]1C(=O)N[C@H](C#N)C[C@@H]1CCNC1=O)C2(C)C` [Nirmatrelvir], for which the “not inhibited by 10 μM” value in assay [1] and in assay [2] was greater than 10 µM throughout.

The record behind these values is doi:10.1101/2025.10.03.680348v2, “Cathepsin K as a Key Protease in Processing of SARS-CoV-2 Spike Activation Sites and a Target of Dual-Inhibition” (biorxiv, 2025).
